# Laboratory results: ChEMBL document CHEMBL5579887, “Structure-Activity Relationship Studies of Substituted 2-Phenyl-1,2,4-triazine-3,5(2H,4H)-dione Analogues: Development of Potent eEF2K Degraders against Triple-Negative Breast Cancer” (J Med Chem, 2024)
# Key:
# MDA-MB-231 [1] = experiment: cells; conditions: Homo sapiens, MDA-MB-231, 72 h, read-out: INH
# Description: Antitumor activity against human MDA-MB-231 cells assessed as inhibition of cell viability by measuring inhibition rate at 20 uM measured after 72 hrs by CCK-8 assay relative to control
# [2] = Kinetic solubility of the compound in PBS buffer at pH 7.4 measured by HPLC analysis
# MDA-MB-231 [3] = experiment: cells; conditions: Homo sapiens, MDA-MB-231, 72 h, read-out: INH; remark: listed apart in the source
# Description: Antitumor activity against human MDA-MB-231 cells assessed as inhibition of cell viability by measuring inhibition rate at 1 uM measured after 72 hrs by CCK-8 assay relative to control
# MDA-MB-231 [4] = experiment: cells; conditions: Homo sapiens, MDA-MB-231, 72 h
# Description: Antitumor activity against human MDA-MB-231 cells assessed as inhibition of cell viability by measuring inhibition rate measured after 72 hrs by CCK-8 assay relative to control
# [5] = target: T1, Eukaryotic elongation factor 2 kinase (Homo sapiens, UniProt O00418); experiment: Binding affinity to eEF2K (unknown origin) assessed as dissociation constant measured by SPR analysis
# T1 sequence (O00418 whole entry): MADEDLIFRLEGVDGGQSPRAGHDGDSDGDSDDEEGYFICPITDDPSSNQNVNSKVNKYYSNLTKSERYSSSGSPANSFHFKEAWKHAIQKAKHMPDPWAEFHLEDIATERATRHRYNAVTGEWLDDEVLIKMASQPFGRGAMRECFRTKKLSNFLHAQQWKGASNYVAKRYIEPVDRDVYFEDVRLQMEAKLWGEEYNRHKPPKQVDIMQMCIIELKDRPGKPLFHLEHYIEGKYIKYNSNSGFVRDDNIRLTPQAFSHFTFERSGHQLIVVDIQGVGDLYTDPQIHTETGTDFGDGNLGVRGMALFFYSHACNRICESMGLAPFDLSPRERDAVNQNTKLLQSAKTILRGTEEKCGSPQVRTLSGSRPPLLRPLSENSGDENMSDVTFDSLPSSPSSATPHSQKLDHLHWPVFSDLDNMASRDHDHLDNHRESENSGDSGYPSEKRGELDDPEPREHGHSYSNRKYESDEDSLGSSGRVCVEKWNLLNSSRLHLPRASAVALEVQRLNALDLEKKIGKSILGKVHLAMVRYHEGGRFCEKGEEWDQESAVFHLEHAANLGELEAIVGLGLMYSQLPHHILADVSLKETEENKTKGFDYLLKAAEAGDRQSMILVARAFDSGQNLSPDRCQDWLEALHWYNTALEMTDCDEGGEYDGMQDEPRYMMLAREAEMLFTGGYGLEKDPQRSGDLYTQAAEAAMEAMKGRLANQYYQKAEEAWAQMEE
# [6] = In vivo antitumor activity against human MDA-MB-231 cells xenografted in female nude mouse assessed as tumor growth inhibition at 10 mg/kg, ip administered every other day relative to control; conditions: MDA-MB-231, read-out: TGI
# MDA-MB-231 [7] = experiment: cells; conditions: Homo sapiens, MDA-MB-231, 72 h, read-out: INH; remark: listed apart in the source
# Description: Antitumor activity against human MDA-MB-231 cells assessed as inhibition of cell viability at 100 nM measured after 72 hrs by CCK-8 assay
Structure (SMILES),inhibition at 20 µM (MDA-MB-231 [1]),solubility kinetic [2],inhibition at 1 µM (MDA-MB-231 [3]),IC50 (MDA-MB-231 [4]),Kd [5],inhibition in vivo at 10 mg/kg [6],inhibition at 0.1 µM (MDA-MB-231 [7])
CCn1c(=O)c2cc(C(N)=O)c(N)nc2n(C2CC2)c1=O,4.67%,,,,,,
Cc1ccc(-n2nc(C(=O)Nc3ccc(CN4CCOCC4)cc3)c(=O)n(Cc3ccccc3)c2=O)cc1C,52.8%,15 µM,,,,,
COc1cccc(Cn2c(=O)c(C#N)nn(-c3ccc(C)c(C)c3)c2=O)c1,97.4%,103 µM,48.9%,,,,
Cc1ccc(-n2nc(C#N)c(=O)n(Cc3ccncc3)c2=O)cc1C,0.27%,,,,,,
Cc1ccc(-n2nc(C(=O)N3CCC[C@@H](CNC(=O)OC(C)(C)C)C3)c(=O)n(Cc3cccc(F)c3)c2=O)cc1C,99.3%,57 µM,92.1%,0.232 µM,,,
Cc1ccc(-n2nc(C#N)c(=O)n(Cc3ccccc3F)c2=O)cc1C,93.5%,,-3.59%,,,,
Cc1ccc(-n2nc(C#N)c(=O)n(Cc3cccc(C(F)(F)F)c3)c2=O)cc1C,92.9%,67 µM,19.3%,,,,
Cc1ccc(-n2nc(C(=O)N3CCC(C(=O)OC(C)(C)C)CC3)c(=O)n(Cc3cccc(F)c3)c2=O)cc1C,90.4%,19 µM,90.7%,0.279 µM,,,
Cc1ccc(-n2nc(C#N)c(=O)n(Cc3cccnc3)c2=O)cc1C,34.8%,106 µM,,,,,
Cc1ccc(-n2nc(C(=O)N3CCCC(CNC(=O)OC(C)(C)C)C3)c(=O)n(Cc3cccc(F)c3)c2=O)cc1C (stereo not drawn),96%,44 µM,91.2%,0.102 µM,0.436 µM,,
Cc1ccc(-n2nc(C(=O)N3CCC[C@H](CNC(=O)OC(C)(C)C)C3)c(=O)n(Cc3cccc(F)c3)c2=O)cc1C,99.9%,24 µM,92.2%,0.261 µM,,,
Cc1ccc(-n2nc(C(=O)N3CCNCC3)c(=O)n(Cc3ccccc3)c2=O)cc1C,96.7%,,,> 1 µM,,,
Cc1ccc(-n2nc(C(=O)N3CCCCC3)c(=O)n(Cc3ccccc3F)c2=O)cc1C,99.2%,20 µM,93.5%,0.0941 µM,,,
Cc1ccc(-n2nc(C(=O)N3CCC[C@@H](NC(=O)OC(C)(C)C)C3)c(=O)n(Cc3cccc(F)c3)c2=O)cc1C,98.3%,129 µM,74.1%,0.478 µM,,,
Cc1ccc(-n2nc(C(=O)N3CCCCC3)c(=O)n(Cc3ccc(F)cc3)c2=O)cc1C,94.1%,96 µM,63.8%,0.771 µM,,,
Cc1ccc(-n2nc(C(=O)N3CCOCC3)c(=O)n(Cc3ccccc3)c2=O)cc1C,95.8%,44 µM,70.1%,0.659 µM,,,
O=C(/C=C/c1cccc(C(F)(F)F)c1)c1cc2ccccc2oc1=O,,,,~1 µM,,,
Cc1ccc(-n2nc(C(=O)NCCN3CCOCC3)c(=O)n(Cc3ccccc3)c2=O)cc1C,60.9%,,,,,,
Cc1ccc(-n2nc(C#N)c(=O)n(Cc3ccccc3)c2=O)cc1C,96.4%,,58.1%,,,,
Cc1ccc(-n2nc(C(=O)N3CCCN(C(=O)OC(C)(C)C)C3)c(=O)n(Cc3cccc(F)c3)c2=O)cc1C,96%,54 µM,39.9%,,,,
Cc1ccc(-n2nc(C(=O)N3CCC(F)(F)CC3)c(=O)n(Cc3cccc(F)c3)c2=O)cc1C,84.3%,,58.6%,,,,
CC#CCn1c(=O)c(C#N)nn(-c2ccc(C)c(C)c2)c1=O,85.5%,71 µM,,,,,
Cc1ccc(-n2nc(C(=O)N3CCCNCC3)c(=O)n(Cc3ccccc3)c2=O)cc1C,53.6%,,,,,,
Cc1ccc(-n2nc(C#N)c(=O)n(Cc3ccccn3)c2=O)cc1C,-4.94%,,,,,,
Cc1ccc(-n2nc(C(=O)N3CCN(C(=O)OC(C)(C)C)CC3)c(=O)n(Cc3cccc(F)c3)c2=O)cc1C,95%,,,,,,
Cc1ccc(-n2nc(C(=O)N3CCCC3)c(=O)n(Cc3ccccc3)c2=O)cc1C,95.4%,30 µM,83.4%,0.288 µM,,,

Structure (SMILES),inhibition at 20 µM (MDA-MB-231 [1]),solubility kinetic [2],inhibition at 1 µM (MDA-MB-231 [3]),IC50 (MDA-MB-231 [4]),Kd [5],inhibition in vivo at 10 mg/kg [6],inhibition at 0.1 µM (MDA-MB-231 [7])
Cc1ccc(-n2nc(C(=O)N3CCC3)c(=O)n(Cc3ccccc3)c2=O)cc1C,98.7%,,17.7%,,,,
Cc1ccc(-n2nc(C#N)c(=O)n(Cc3ccc(F)cc3)c2=O)cc1C,93.6%,,-1.93%,,,,
Cc1ccc(-n2nc(C(=O)NC3CCN(Cc4ccccc4)CC3)c(=O)n(Cc3ccccc3)c2=O)cc1C,74.9%,,,,,,
Cc1ccc(-n2nc(C(=O)N3CCN(c4ccccc4)CC3)c(=O)n(Cc3ccccc3)c2=O)cc1C,79%,,,,,,
Cc1ccc(-n2nc(C(=O)N3CCCCC3)c(=O)n(Cc3cccc(F)c3)c2=O)cc1C,99.6%,17 µM,93.3%,0.168 µM,,,
Cc1ccc(-n2nc(C#N)c(=O)n(Cc3cccc(F)c3)c2=O)cc1C,91.1%,15 µM,23.2%,,,,
Cc1ccc(-n2nc(C(=O)N3CCN(C(=O)C4CC4)CC3)c(=O)n(Cc3cccc(F)c3)c2=O)cc1C,22.2%,,,,,,
Cc1ccc(-n2nc(C(=O)N3CCC(F)(F)CC3)c(=O)n(Cc3ccccc3)c2=O)cc1C,96.8%,36 µM,61.5%,0.484 µM,,,
COc1ccccc1CNC(=O)c1nn(-c2ccc(C)c(C)c2)c(=O)n(Cc2ccccc2)c1=O,17.5%,25 µM,,,,,
Cc1ccc(-n2nc(C(=O)N3CCCCCC3)c(=O)n(Cc3ccccc3)c2=O)cc1C,99.7%,62 µM,96%,0.0459 µM,,,
CCN1CCN(C(=O)c2nn(-c3ccc(C)c(C)c3)c(=O)n(Cc3ccccc3)c2=O)CC1,93.3%,,,> 1 µM,,,
CCOC(=O)C1CCCN(C(=O)c2nn(-c3ccc(C)c(C)c3)c(=O)n(Cc3cccc(F)c3)c2=O)C1 (stereo not drawn),98.4%,90 µM,87.6%,0.131 µM,,,
Cc1ccc(-n2nc(C(=O)N(C)C)c(=O)n(Cc3ccccc3)c2=O)cc1C,89.8%,56 µM,64%,0.867 µM,,,
Cc1ccc(-n2nc(C(=O)N3C4CCC3CN(C(=O)OC(C)(C)C)C4)c(=O)n(Cc3cccc(F)c3)c2=O)cc1C,14.5%,99 µM,,,,,
Cc1ccc(-n2nc(C(=O)N3CCCN(C(=O)OC(C)(C)C)CC3)c(=O)n(Cc3cccc(F)c3)c2=O)cc1C,98.3%,41 µM,71.1%,0.611 µM,,,
Cc1ccc(-n2nc(C(=O)N3CCC(F)CC3)c(=O)n(Cc3ccccc3)c2=O)cc1C,99.3%,57 µM,89.5%,0.132 µM,,,
Cc1ccc(-n2nc(C(=O)N3CC(N(C)C(=O)OC(C)(C)C)C3)c(=O)n(Cc3cccc(F)c3)c2=O)cc1C,98.5%,,,,,,
Cc1ccc(-n2nc(C(=O)N3CCC[C@H](NC(=O)OC(C)(C)C)C3)c(=O)n(Cc3cccc(F)c3)c2=O)cc1C,98%,,8.56%,,,,
CCOC(=O)N1CCN(C(=O)c2nn(-c3ccc(C)c(C)c3)c(=O)n(Cc3cccc(F)c3)c2=O)CC1,95.5%,,,,,,
Cc1ccc(-n2nc(C(=O)N3CCN(C(=O)N(C)C)CC3)c(=O)n(Cc3cccc(F)c3)c2=O)cc1C,12.8%,,,,,,
Cc1ccc(-n2nc(C(=O)N3CC(NC(=O)OC(C)(C)C)C3)c(=O)n(Cc3cccc(F)c3)c2=O)cc1C,73%,,,,,,
Cc1ccc(-n2nc(C(=O)N3CCCN(C)CC3)c(=O)n(Cc3ccccc3)c2=O)cc1C,97.2%,,,> 1 µM,,,
Cc1ccc(-n2nc(C(=O)N3CC3)c(=O)n(Cc3ccccc3)c2=O)cc1C,72.7%,47 µM,,,,,
Cc1ccc(-n2nc(C(=O)NCc3ccccn3)c(=O)n(Cc3ccccc3)c2=O)cc1C,71.2%,,,,,,
Cc1ccc(-n2nc(C(=O)NCCN(C)C)c(=O)n(Cc3ccccc3)c2=O)cc1C,97.7%,,,> 1 µM,,,
CC(=O)O[C@H]1C(=O)[C@@]2(C)[C@H]([C@H](OC(=O)c3ccccc3)[C@]3(O)C[C@H](OC(=O)[C@H](O)[C@@H](NC(=O)c4ccccc4)c4ccccc4)C(C)=C1C3(C)C)[C@]1(OC(C)=O)CO[C@@H]1C[C@@H]2O [PACLITAXEL],,,88.9%,0.0383 µM,,52.7%,82.4%
